From PubChem BioAssay AID320 (DTP/NCI, 2004)
Values joined by “and” are separate entries in the source; they are usually repeats but may differ in a detail not shown here. Identical values can stand only once. Inconclusive results and toxic doses are left out.

Tested on: BDF1 mice, P329 reticulum cell sarcoma ip, survival T/C
Assay: NCI In Vivo Anticancer Drug Screen. Data for tumor model P329 Reticulum Cell Sarcoma (intraperitoneal) in B6D2F1 (BDF1) mice
Settings: endpoint: median survival time, higher = longer survival
Experimental: The antitumor activity of compounds was measured in mice bearing transplantable tumors. Survival or tumor size were measured and the results are expressed as the measurement made in the treated group (T) divided by the measurement made in the vehicle treated control group (C). The tumor model used in this assay is P329 Reticulum Cell Sarcoma (intraperitoneal) in B6D2F1 (BDF1) mice

[1] = dose: 3.13 mg/kg/injection, schedule: Q01DX010 (ip), vehicle: saline
[2] = dose: 6.25 mg/kg/injection, schedule: Q01DX010 (ip), vehicle: saline
[3] = dose: 12.5 mg/kg/injection, schedule: Q01DX010 (ip), vehicle: saline
[4] = dose: 25.0 mg/kg/injection, schedule: Q01DX010 (ip), vehicle: saline
[5] = dose: 50.0 mg/kg/injection, schedule: Q01DX010 (ip), vehicle: saline
[6] = dose: 5.0 mg/kg/injection, schedule: Q01DX010 (ip), vehicle: saline
[7] = dose: 10.0 mg/kg/injection, schedule: Q01DX010 (ip), vehicle: saline
[8] = dose: 1.0 mg/kg/injection, schedule: Q01DX010 (ip), vehicle: saline
[9] = dose: 1.25 mg/kg/injection, schedule: Q01DX010 (ip), vehicle: saline
[10] = dose: 2.5 mg/kg/injection, schedule: Q01DX010 (ip), vehicle: saline
[11] = dose: 200.0 mg/kg/injection, schedule: Q01DX010 (ip), vehicle: saline
[12] = dose: 62.5 micrograms/kg/injection, schedule: Q01DX010 (ip), vehicle: saline
[13] = dose: 125.0 micrograms/kg/injection, schedule: Q01DX010 (ip), vehicle: saline
[14] = dose: 250.0 micrograms/kg/injection, schedule: Q01DX010 (ip), vehicle: saline
[15] = dose: 500.0 micrograms/kg/injection, schedule: Q01DX010 (ip), vehicle: saline
[16] = dose: 6.0 mg/kg/injection, schedule: Q01DX010 (ip), vehicle: saline
[17] = dose: 8.0 mg/kg/injection, schedule: Q01DX010 (ip), vehicle: saline
[18] = dose: 62.5 mg/kg/injection, schedule: Q01DX010 (ip), vehicle: saline
[19] = dose: 37.5 mg/kg/injection, schedule: Q01DX010 (ip), vehicle: saline
[20] = dose: 75.0 mg/kg/injection, schedule: Q01DX010 (ip), vehicle: saline
[21] = dose: 31.3 mg/kg/injection, schedule: Q01DX010 (ip), vehicle: saline
[22] = dose: 125.0 mg/kg/injection, schedule: Q01DX010 (ip), vehicle: saline
[23] = dose: 100.0 mg/kg/injection, schedule: Q01DX010 (ip), vehicle: saline
[24] = dose: 16.0 mg/kg/injection, schedule: Q01DX010 (ip), vehicle: saline
[25] = dose: 20.0 mg/kg/injection, schedule: Q01DX010 (ip), vehicle: saline
[26] = dose: 4.0 mg/kg/injection, schedule: Q01DX010 (ip), vehicle: saline

Compound: O=C(O)CCCc1ccc(N(CCCl)CCCl)cc1
- T/C [1]: 96 % of control and 108 % of control
- T/C [2]: 103 % of control and 108 % of control
- T/C [3]: 116 % of control and 119 % of control

Compound: CC[C@]1(O)C[C@H]2CN(CCc3c([nH]c4ccccc34)[C@@](C(=O)OC)(c3cc4c(cc3OC)N(C=O)[C@H]3[C@@](O)(C(=O)OC)[C@H](OC(C)=O)[C@]5(CC)C=CCN6CC[C@]43[C@@H]65)C2)C1
- T/C (dose: 0.03 mg/kg/injection, schedule: Q01DX010 (ip), vehicle: saline): 100 % of control and 105 % of control
- T/C (dose: 0.06 mg/kg/injection, schedule: Q01DX010 (ip), vehicle: saline): 104 % of control and 113 % of control
- T/C (dose: 0.12 mg/kg/injection, schedule: Q01DX010 (ip), vehicle: saline): 114 % of control

Compound: COS(C)(=O)=O
- T/C [3]: 100 % of control
- T/C [4]: 93 % of control
- T/C [5]: 116 % of control

Compound: Cc1cc(N(CCCl)CCCl)ccc1N=Nc1ccccc1C(=O)O
- T/C [6]: 107 % of control and 114 % of control
- T/C [7]: 114 % of control

Compound: CO[C@H](C(=O)[C@@H](O)[C@@H](C)O)[C@@H]1Cc2cc3cc(OC4CC(OC5CC(O)C(O)C(C)O5)C(O)C(C)O4)c(C)c(O)c3c(O)c2C(=O)[C@H]1OC1CC(OC2CC(OC3CC(C)(O)C(O)C(C)O3)C(O)C(C)O2)C(O)C(C)O1 (some centres undefined)
- T/C (dose: 0.5 mg/kg/injection, schedule: Q01DX010 (ip), vehicle: saline): 103 % of control
- T/C [8]: 90 % of control

Compound: CC(=O)Nc1ccc2nc3ccc(NC(C)=O)cc3[n+](-c3ccccc3)c2c1
- T/C [4]: 121 % of control
- T/C [5]: 114 % of control

Compound: Nc1nc(N)c2nc(CNc3ccc(C(=O)NC(CCC(=O)O)C(=O)O)cc3)cnc2n1 (centres undefined)
- T/C (dose: 0.05 mg/kg/injection, schedule: Q01DX010 (ip), vehicle: other): 111 % of control
- T/C (dose: 0.1 mg/kg/injection, schedule: Q01DX010 (ip), vehicle: other): 107 % of control
- T/C (dose: 0.2 mg/kg/injection, schedule: Q01DX010 (ip), vehicle: other): 123 % of control

Compound: N#[N+]c1cnc([O-])[nH]c1=O
- T/C [9]: 122 % of control
- T/C [10]: 103 % of control
- T/C [6]: 110 % of control
- T/C [7]: 117 % of control

Compound: O=c1cnn(C2OC(CO)C(O)C2O)c(=O)[nH]1 (centres undefined)
- T/C [11]: 116 % of control

Compound: O[C@H](CN1CC1)[C@@H](O)CN1CC1
- T/C [12]: 106 % of control and 121 % of control
- T/C [13]: 123 % of control
- T/C [14]: 167 % of control
- T/C [15]: 166 % of control

Compound: O=C(Nc1ccc(C2=NCCN2)cc1)c1ccc(C(=O)Nc2ccc(C3=NCCN3)cc2)c([N+](=O)[O-])c1
- T/C [16]: 153 % of control and 175 % of control
- T/C [17]: 188 % of control and 212 % of control
- T/C (dose: 18.0 mg/kg/injection, schedule: Q01DX010 (ip), vehicle: saline): 91 % of control

Compound: N=C(N)c1ccc(Nc2ccc(C(=N)N)cc2)cc1
- T/C (dose: 1.5 mg/kg/injection, schedule: Q01DX010 (ip), vehicle: saline): 93 % of control
- T/C (dose: 3.0 mg/kg/injection, schedule: Q01DX010 (ip), vehicle: saline): 87 % of control
- T/C [16]: 96 % of control
- T/C (dose: 12.0 mg/kg/injection, schedule: Q01DX010 (ip), vehicle: saline): 90 % of control

Compound: COc1ccc2c(c1OC)C(=O)O[C@@H]2[C@H]1c2c(cc3c(c2OC)OCO3)CCN1C
- T/C [18]: 92 % of control

Compound: CO[C@@H]1[C@@H](OC2OC(C)C(OC3CC(C)(O)C(OC(=O)CC(C)C)C(C)O3)C(N(C)C)C2O)[C@@H](CC=O)C[C@@H](C)C(=O)/C=C/C2O[C@H]2C[C@@H](C)OC(=O)C[C@H]1OC(C)=O (some centres undefined)
- T/C [19]: 100 % of control
- T/C [20]: 100 % of control and 107 % of control
- T/C (dose: 150.0 mg/kg/injection, schedule: Q01DX010 (ip), vehicle: saline): 103 % of control and 107 % of control
- T/C (dose: 300.0 mg/kg/injection, schedule: Q01DX010 (ip), vehicle: saline): 107 % of control and 114 % of control

Compound: CCn1cnc2c(=S)nc[nH]c21
- T/C (dose: 15.6 mg/kg/injection, schedule: Q01DX010 (ip), vehicle: saline): 111 % of control and 114 % of control
- T/C [21]: 114 % of control and 123 % of control
- T/C [22]: 89 % of control and 100 % of control

Compound: C[C@]12C=CC(=O)C=C1CC[C@@H]1[C@@H]2C(=O)C[C@@]2(C)[C@H]1CC[C@]2(O)C(=O)CO
- T/C (dose: 12.5 mg/kg/injection, schedule: Q01DX010 (sc), vehicle: steriod suspending solution): 95 % of control and 104 % of control

Compound: COc1cc(-c2ccc(Nc3ccccc3C(=O)O)c(OC)c2)ccc1Nc1ccccc1C(=O)O
- T/C [3]: 100 % of control
- T/C [4]: 103 % of control
- T/C [5]: 110 % of control
- T/C [23]: 110 % of control

Compound: CS(=O)(=O)OCCCl
- T/C (dose: 9.4 mg/kg/injection, schedule: Q01DX010 (ip), vehicle: saline): 107 % of control
- T/C (dose: 18.8 mg/kg/injection, schedule: Q01DX010 (ip), vehicle: saline): 96 % of control and 100 % of control
- T/C [19]: 92 % of control and 107 % of control
- T/C [20]: 92 % of control and 107 % of control

Compound: O=NN(CCCl)C(=O)NCCCl
- T/C [1]: 158 % of control
- T/C [2]: 157 % of control and 158 % of control
- T/C [3]: 103 % of control

Compound: COC(=O)[C@@H]1c2cc3c(c(O)c2[C@@H](OC2OC(C)C(OC)C(C)(OC)C2OC)C[C@]1(C)O)C(=O)c1c(O)cc2c(c1C3=O)O[C@H]1O[C@]2(C)[C@H](O)[C@@H](N(C)C)[C@@H]1O (some centres undefined)
- T/C [12]: 100 % of control
- T/C [13]: 93 % of control and 100 % of control
- T/C [14]: 90 % of control and 100 % of control
- T/C [15]: 93 % of control and 100 % of control

Compound: C#CCN(C)Cc1ccccc1
- T/C [4]: 100 % of control
- T/C [5]: 100 % of control
- T/C [23]: 93 % of control
- T/C [11]: 106 % of control

Compound: CCCSc1ncnc2nc[nH]c12
- T/C [21]: 115 % of control and 123 % of control
- T/C [18]: 107 % of control
- T/C [22]: 107 % of control

Compound: O=C(Nc1ccc(C2=NCCN2)cc1)c1cccc(C(=O)Nc2ccc(C3=NCCN3)cc2)c1
- T/C [24]: 150 % of control and 176 % of control
- T/C (dose: 32.0 mg/kg/injection, schedule: Q01DX010 (ip), vehicle: saline): 169 % of control and 180 % of control
- T/C (dose: 64.0 mg/kg/injection, schedule: Q01DX010 (ip), vehicle: saline): 184 % of control and 196 % of control

Compound: O=c1[nH]cc(F)c(=O)[nH]1
- T/C [6]: 123 % of control
- T/C [25]: 161 % of control and 162 % of control

Compound: Nc1nc2n[nH]nc2c(=O)[nH]1
- T/C (dose: 100.0 mg/kg/injection, schedule: Q01DX010 (ip), vehicle: alkali diluted with saline): 153 % of control
- T/C (dose: 200.0 mg/kg/injection, schedule: Q01DX010 (ip), vehicle: alkali diluted with saline): 150 % of control

Compound: Nc1nc(=S)c2ncn(C3OC(CO)C(O)C3O)c2[nH]1 (centres undefined)
- T/C [26]: 110 % of control
- T/C [24]: 90 % of control

Compound: Cn1cnc([N+](=O)[O-])c1Sc1nc(N)nc2nc[nH]c12
- T/C [10]: 150 % of control
- T/C [7]: 100 % of control

Compound: CSc1ncnc2nc[nH]c12
- T/C [4]: 115 % of control and 123 % of control

Compound: CC(CCC(C)OS(C)(=O)=O)OS(C)(=O)=O (centres undefined)
- T/C (dose: 2.0 mg/kg/injection, schedule: Q01DX010 (ip), vehicle: saline): 100 % of control and 107 % of control
- T/C [26]: 103 % of control and 107 % of control
- T/C [17]: 114 % of control and 115 % of control

Compound: CS(=O)(=O)OCCN(CCOS(C)(=O)=O)c1ccc(N=O)cc1
- T/C [8]: 107 % of control

Compound: Oc1cc(CN(CCCl)CCCl)c(O)cc1CN(CCCl)CCCl
- T/C (dose: 0.63 mg/kg/injection, schedule: Q01DX010 (ip), vehicle: saline): 103 % of control and 114 % of control
- T/C [9]: 114 % of control
- T/C [10]: 117 % of control
- T/C [6]: 96 % of control and 107 % of control

Compound: CN(C)/N=N/c1nc[nH]c1C(N)=O
- T/C [4]: 121 % of control
- T/C [23]: 169 % of control
- T/C [11]: 100 % of control and 110 % of control

Compound: O=c1[nH]c(=O)n(C2CC(O)C(CO)O2)cc1F (centres undefined)
- T/C [6]: 103 % of control
- T/C [7]: 110 % of control and 111 % of control
- T/C [25]: 123 % of control
- T/C (dose: 40.0 mg/kg/injection, schedule: Q01DX010 (ip), vehicle: saline): 150 % of control
- T/C (dose: 80.0 mg/kg/injection, schedule: Q01DX010 (ip), vehicle: saline): 161 % of control

Compound: CS(=O)(=O)OCC(O)C(O)C(O)C(O)COS(C)(=O)=O (centres undefined)
- T/C [4]: 100 % of control
- T/C [5]: 100 % of control and 103 % of control
- T/C [23]: 107 % of control
- T/C [11]: 121 % of control and 123 % of control

Compound: CS(=O)(=O)OCCC(=O)N1CCN(C(=O)CCOS(C)(=O)=O)CC1
- T/C [4]: 117 % of control
- T/C [11]: 89 % of control
